# Assay results from US8389236B2, “Assay” (Otago Innovation Limited, priority 2005, dated 2013).
# Several values for one entry are separate records, joined by “and”; a condition that tells them apart may be missing. Identical values can stand only once.
# Columns and labels:
# [1] = system: HIV-1 gag/pol −1 frameshift signal sequence (HIV-1 frameshift construct); test: Stably transfected dual fluorescent reporter recoding assay in Flp-In CV1 cells (−1 frame construct); assay type: cell-based; conditions: for DsRed/EGFP ratio / Percentage decrease in ratio / Minus 1 Frameshift Construct EGFP signal, Average / Minus 1 Frameshift Construct DsRed signal, Average: 120 hours; for DsRed/EGFP ratio / Percentage decrease in ratio: stable Flp-In CV1 cells; for DsRed/EGFP ratio: not normalised to Null 0, expressed as a percentage; for Percentage decrease in ratio: vs no drug; for Minus 1 Frameshift Construct EGFP signal, Average: 485 excitation 515 emission; for Minus 1 Frameshift Construct DsRed signal, Average: 535 excitation 590 emission
# Protocol: The translational recoding construct described above was excised via Hind III and Not I restrictions sites and ligated into a Flp-In™ pcDNA5/FRT expression vector (Invitrogen Life Technologies) before being stably transformed into Flp-In™ CV1 cells (Invitrogen Life Technologies) according to the manufacturer's instructions.
# Flp-In CV1 cells (CV1 cells), as described in Example 2, transfected with the −1 frame construct, and untransfected CV1 cells were grown, harvested, trypsinised, washed and diluted to 1×10^5 cells/ml all under standard conditions.
# Cells were then seeded in 96 well plates under standard conditions. The plates were then incubated for 120 hours at 37° C.
# (§1) The cells were washed 3 times with Phosphate Buffered Saline (PBS) to remove any traces of culture medium. 100 ul of Passive Lysis buffer (Promega) was added. The cells were frozen. The frozen cells were then thawed and fluorescence intensity was read in the Tecan Genios Pro plate reader.
# Plate reader setting were as follows:
# Filters 485 excitation, 515 emission
# Filters 535 excitation, 590 emission
# As a Null 0 frameshift construct was not used in this experiment ratios of the DsRed to EGFP signal were calculated to take into account the decrease in the EGFP signal with increasing drug concentrations.
# The calculation was similar to example 3, with the counts averaged, the control cell counts removed before working out the ratio of the DsRed signal to the EGFP signal. Normalisation using a Null 0 frame construct could not be performed, with the results below being expressed as a percentage. The calculation was a follows: [[DsRed signal: HIV-1 frameshift construct]/[EGFP signal: HIV-1 frameshift construct]]
# [2] = system: HIV-1 gag/pol −1 frameshift signal sequence (HIV-1 frameshift construct); test: Dual fluorescent reporter (EGFP/DsRed) recoding assay in transiently transfected COS-7 cells, with Null 0 control construct; assay type: cell-based; conditions: for Minus 1 Frameshift Construct EGFP signal, Average / Null 0 Frameshift Construct EGFP signal, Average: 485 excitation 520-P emission; for Minus 1 Frameshift Construct DsRed signal, Average / Null 0 Frameshift Construct DsRed signal, Average: 525 excitation 600LP emission; for Frameshift: DsRed 525 excitation/600LP emission
# Protocol: Mammalian COS-7 cells were grown, harvested, trypsinised, washed and diluted to 1×10^5 cells/ml all under standard conditions.
# The diluted cells were then split into two equal portions. One portion was transiently transfected with the recoding construct, and other with the Null 0 frame control construct. Transient transfection was performed using 2 μL of FuGENE® 6 transfection reagent (Roche) and 500 ng of DNA for every mL of cells, in accordance with the manufacturing instructions.
# Transfected cells were seeded in 24 well plates under standard conditions. Cycloheximide was added in triplicate at 50 nM and the plates were then incubated for 48 hours at 37° C.
# as §1, with “and transferred to a 96 well plate, and” for “and”, “BMG PolarStar” for “Tecan Genios Pro”
# Plate reader settings were as follows:
# Filters 485 excitation, 520-P emission
# Filters 544 excitation, 590 emission
# [[DsRed signal: HIV-1 frameshift construct]/[EGFP signal: HIV-1 frameshift construct]]/[[DsRed signal: Null 0 frameshift construct]/[EGFP signal: Null 0 frameshift construct]]
# The diluted cells were then split into two equal portions. One portion was transfected, as described in Example 3, with the recoding construct, and other with the Null 0 frame control construct.
# Cells were then seeded in 24 well plates under standard conditions. Anisomycin was added in triplicate at 50 nM and the plates were then incubated for 48 hours at 37° C.
# The cells were prepared as described in examples 3 and 4.
# DsRed signal at 525 excitation, 600LP emission
# EGFP signal at 485 excitation, 520-P emission
# Frameshift figures, shown in Table 5, were calculated using the formula shown in Example 3 using data from Tables 1, 2, 3 and 4.
# Transfected cells were prepared as described in Example 5, and treated with 0 nM (no drug) 100 nM, 200 nM, 300 nM, 400 nM and 500 nM concentrations of anisomycin.
# Incubation, plate reader setting and readings were as described in Example 5.
# For the anisomycin titrations, the frameshift figures, shown in Table 10, were calculated using the formula shown in Example 3 using data from Tables 6, 7, 8 and 9.
# [3] = 50 nM, 48 hours, 485 excitation, 520-P emission
# [4] = 50 nM, 48 hours, 544 excitation, 590 emission
# [5] = 100 nM, COS-7, 525/600LP filters, vs no drugs
smiles,measurement,setting,value
C[C@@H]1C[C@@H]([C@H](O)CC2CC(=O)NC(=O)C2)C(=O)[C@@H](C)C1 [Cycloheximide],DsRed/EGFP ratio,[1]; 50 nM,7.38%
same,Percentage decrease in ratio,[1]; 50 nM,4.11%
same,"Minus 1 Frameshift Construct EGFP signal, Average",[1]; 50 nM,11313
same,"Minus 1 Frameshift Construct DsRed signal, Average",[1]; 50 nM,1220
same,DsRed/EGFP ratio,[1]; 100 nM,7.28%
same,Percentage decrease in ratio,[1]; 100 nM,5.39%
same,"Minus 1 Frameshift Construct EGFP signal, Average",[1]; 100 nM,11262
same,"Minus 1 Frameshift Construct DsRed signal, Average",[1]; 100 nM,1210
same,DsRed/EGFP ratio,[1]; 500 nM,5.47%
same,Percentage decrease in ratio,[1]; 500 nM,28.91%
same,"Minus 1 Frameshift Construct EGFP signal, Average",[1]; 500 nM,8638
same,"Minus 1 Frameshift Construct DsRed signal, Average",[1]; 500 nM,948
same,DsRed/EGFP ratio,[1]; 1000 nM,3.25%
same,Percentage decrease in ratio,[1]; 1000 nM,57.82%
same,"Minus 1 Frameshift Construct EGFP signal, Average",[1]; 1000 nM,7308
same,"Minus 1 Frameshift Construct DsRed signal, Average",[1]; 1000 nM,818
same,DsRed/EGFP ratio,[1]; 2000 nM,−2.94%
same,Percentage decrease in ratio,[1]; 2000 nM,138.27%
same,"Minus 1 Frameshift Construct EGFP signal, Average",[1]; 2000 nM,6285
same,"Minus 1 Frameshift Construct DsRed signal, Average",[1]; 2000 nM,688
same,% decrease in ratio over concentration range,"[1]; range between 50 nM and 2000 nM, stable cells, result in words",dose responsive effect
same,decrease in frameshift from the original (no drug) value,"[2]; 50 nM, 48 hours, COS-7, 544/590 filters",5%
same,absolute change frameshift efficiency,"[2]; 50 nM, 48 hours, COS-7, vs no drug control, 544/590 filters",0.29%
same,"EGFP signal, HIV-1 frameshift construct, average",[2]; [3],24268 RFU
same,"EGFP signal, HIV-1 frameshift construct, average minus control",[2]; [3],23858 RFU
same,"EGFP signal, Null 0 frameshift construct, average",[2]; [3],42054 RFU
same,"EGFP signal, Null 0 frameshift construct, average minus control",[2]; [3],41644 RFU
same,"DsRed signal, HIV-1 frameshift construct, average",[2]; [4],1447 RFU
same,"DsRed signal, HIV-1 frameshift construct, average minus control",[2]; [4],1342 RFU
same,"DsRed signal, Null 0 frameshift construct, average",[2]; [4],43596 RFU
same,"DsRed signal, Null 0 frameshift construct, average minus control",[2]; [4],43491 RFU
same,"Minus 1 Frameshift Construct EGFP signal, Average",[2]; 100 nM,23068
same,"Null 0 Frameshift Construct EGFP signal, Average",[2]; 100 nM,41181
same,"Minus 1 Frameshift Construct DsRed signal, Average",[2]; 100 nM,2384
same,"Null 0 Frameshift Construct DsRed signal, Average",[2]; 100 nM,39126
same,Percentage decrease in frameshift,[2]; [5],2.7% and 2.71%
same,absolute change in frameshift efficiency,[2]; [5],0.23%
same,Frameshift,"[2]; 100 nM, COS-7",8.25%
same,"Minus 1 Frameshift Construct EGFP signal, Average",[2]; 200 nM,25793
same,"Null 0 Frameshift Construct EGFP signal, Average",[2]; 200 nM,42120
same,"Minus 1 Frameshift Construct DsRed signal, Average",[2]; 200 nM,2567
same,"Null 0 Frameshift Construct DsRed signal, Average",[2]; 200 nM,40152
same,Percentage decrease in frameshift,"[2]; 200 nM, COS-7, 525/600LP filters, vs no drugs",4.51%
same,Frameshift,"[2]; 200 nM, COS-7",8.10%
same,"Minus 1 Frameshift Construct EGFP signal, Average",[2]; 300 nM,27197
same,"Null 0 Frameshift Construct EGFP signal, Average",[2]; 300 nM,46595
same,"Minus 1 Frameshift Construct DsRed signal, Average",[2]; 300 nM,2674
same,"Null 0 Frameshift Construct DsRed signal, Average",[2]; 300 nM,45168
same,Percentage decrease in frameshift,"[2]; 300 nM, COS-7, 525/600LP filters, vs no drugs",6.17%
same,Frameshift,"[2]; 300 nM, COS-7",7.96%
same,"Minus 1 Frameshift Construct EGFP signal, Average",[2]; 400 nM,27613
same,"Null 0 Frameshift Construct EGFP signal, Average",[2]; 400 nM,42950
same,"Minus 1 Frameshift Construct DsRed signal, Average",[2]; 400 nM,2704
same,"Null 0 Frameshift Construct DsRed signal, Average",[2]; 400 nM,41311
same,Percentage decrease in frameshift,"[2]; 400 nM, COS-7, 525/600LP filters, vs no drugs",5.52%
same,Frameshift,"[2]; 400 nM, COS-7",8.01%
same,"Minus 1 Frameshift Construct EGFP signal, Average",[2]; 500 nM,28615
same,"Null 0 Frameshift Construct EGFP signal, Average",[2]; 500 nM,42742
same,"Minus 1 Frameshift Construct DsRed signal, Average",[2]; 500 nM,2790
same,"Null 0 Frameshift Construct DsRed signal, Average",[2]; 500 nM,41338
same,Percentage decrease in frameshift,"[2]; 500 nM, COS-7, 525/600LP filters, vs no drugs",5.66%
same,Frameshift,"[2]; 500 nM, COS-7",8.00%
same,effect on −1 frameshifting,[2]; result in words,antagonists to −1 frameshifting
